The test system of the test is PC9-ER cells. In words: Cell viability (MTT) of Erlotinib-resistant cells. As to conditions: Homo sapiens, PC-9/ER, 72 h, read-out: Inhibition of PC9-ER cell proliferation, Erlotinib alone.

Among the data in paper PMC8890653, “Cell-penetrating peptides containing the progesterone receptor polyproline domain inhibits EGF signaling and cell proliferation in lung cancer cells” (PLoS ONE, 2022) are inhibition values, retold here.

Turning to `C#Cc1cccc(Nc2ncnc3cc(OCCOC)c(OCCOC)cc23)c1` [Erlotinib], the inhibition at 0.1 µM was 8%.
